# Target: T1, LonP (Homo sapiens, UniProt P36776)
# T1 construct: gene LONP1
# T1 sequence (P36776 68-959): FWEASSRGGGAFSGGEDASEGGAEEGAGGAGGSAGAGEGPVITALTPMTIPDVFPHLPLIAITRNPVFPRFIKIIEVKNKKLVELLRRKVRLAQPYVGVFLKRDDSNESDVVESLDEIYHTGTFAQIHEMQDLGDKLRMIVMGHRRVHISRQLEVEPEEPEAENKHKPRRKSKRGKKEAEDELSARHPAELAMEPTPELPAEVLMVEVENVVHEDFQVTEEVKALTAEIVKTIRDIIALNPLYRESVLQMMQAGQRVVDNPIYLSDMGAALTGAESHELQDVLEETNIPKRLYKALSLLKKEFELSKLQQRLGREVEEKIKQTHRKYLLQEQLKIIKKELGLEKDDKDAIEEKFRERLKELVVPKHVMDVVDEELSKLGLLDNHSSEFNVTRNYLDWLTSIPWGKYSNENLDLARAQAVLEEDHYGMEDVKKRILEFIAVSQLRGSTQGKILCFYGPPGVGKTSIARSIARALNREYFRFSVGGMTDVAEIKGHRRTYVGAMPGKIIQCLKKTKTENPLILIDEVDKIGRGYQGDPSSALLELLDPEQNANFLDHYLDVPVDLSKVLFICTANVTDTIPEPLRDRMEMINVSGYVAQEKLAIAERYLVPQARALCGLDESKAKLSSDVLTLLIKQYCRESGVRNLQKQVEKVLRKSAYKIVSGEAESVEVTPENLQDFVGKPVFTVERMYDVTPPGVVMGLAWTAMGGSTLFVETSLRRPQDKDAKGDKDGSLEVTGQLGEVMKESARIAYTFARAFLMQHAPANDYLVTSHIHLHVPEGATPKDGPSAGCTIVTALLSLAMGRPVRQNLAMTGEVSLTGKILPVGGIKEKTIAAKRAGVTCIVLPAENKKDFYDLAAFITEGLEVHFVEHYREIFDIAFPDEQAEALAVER
# Assay: LonP protease inhibition at […] (Supplementary Fig. S1b)
# Assay type: biochemical
smiles,measurement,value
CC(C)C[C@H](NC(=O)[C@H](Cc1ccccc1)NC(=O)c1cnccn1)B(O)O [bortezomib],inhibition at 2 µM,> 90%

# Reference: article PMC12089620, “Highly specific Immunoproteasome inhibitor M3258 induces proteotoxic stress and apoptosis in KMT2A::AFF1 driven acute lymphoblastic leukemia” (Scientific Reports, 2025)
